From ChEMBL document CHEMBL1201862, “PubChem BioAssay data set” (2004) come the findings set out here.

Some test systems named below: A498; A549; BT-549; EKVX; HCT-15; Hs-578T; MDA-MB-435; MDA-N; NCI-H226; NCI-H460; PC-3; RXF 393; SF-268; SF-539; SK-MEL-28; SNB-75; T47D.
Experiment in all cases: NCI tumour cell line growth inhibition, 48 h

SMILES strings stand for the structures. Structures can show the parent of a compound that is named as a salt.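 How tested: cells in 96-well plates exposed to compound for 48 hours at five concentrations. GI50: concentration for 50% inhibition of growth.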 The source made the active and inactive calls. Rule as the data show it: active = GI50 up to about 1.1 µM and inactive = higher.

For `CCCCOC(=O)CC(CC(=O)OCCCC)(OC(C)=O)C(=O)OCCCC` [ACETYLTRIBUTYL CITRATE], the GI50 in the assay with A498 is > 200 µM (inactive); in the assay with A549, 96.8 µM (inactive); in the assay on BT-549 it was > 200 µM (inactive); in the assay with EKVX, > 101 µM (inactive); with HCT-15, over 177 µM; in the assay on Hs-578T, > 123 µM (inactive). The GI50 in the assay with MDA-MB-435 was > 178 µM (inactive); in the assay with MDA-N it was > 170 µM (inactive); with NCI-H226, 24.6 µM (inactive); in the assay with NCI-H460 it was 162 µM (inactive); in the assay with PC-3, 132 µM (inactive); in the assay with RXF 393, 1.1 µM (active). Further, the GI50 with SF-268 is > 200 µM (inactive); with SF-539 it was > 100 µM (inactive); with SK-MEL-28, > 157 µM (inactive); with SNB-75, 8.49 µM (inactive); in the assay on T47D, 48.4 µM (inactive).
In the case of `O=C1Cc2c([nH]c3cc(Br)ccc23)-c2ccccc2N1`, the GI50 was 21.5 µM (inactive) with A498; 15.8 µM (inactive) with A549; 17.2 µM (inactive) with BT-549; 4.21 µM in the assay on HCT-15; 14.8 µM (inactive) in the assay on Hs-578T; 26.5 µM (inactive) with MDA-MB-435. The GI50 in the assay with MDA-N is 30.1 µM (inactive); in the assay with NCI-H226 it was 6.98 µM (inactive); with NCI-H460 it was 15.5 µM (inactive); in the assay with PC-3, 3.56 µM (inactive); with RXF 393 it was 3.24 µM (inactive); in the assay on SF-268 it was 25.2 µM (inactive). The GI50 was 16.2 µM (inactive) with SF-539, > 100 µM (inactive) with SK-MEL-28, 23.8 µM (inactive) in the assay on SNB-75 and 10.9 µM (inactive) with T47D.
Take `CCC(=O)OCN(C)c1nc(N(C)COC(=O)CC)nc(N(C)COC(=O)CC)n1`: the GI50 is 49 µM (inactive) in the assay with A498; 32.9 µM (inactive) in the assay on BT-549; 21.4 µM in the assay with HCT-15; > 100 µM (inactive) with Hs-578T; > 100 µM (inactive) in the assay with MDA-MB-435; 33.3 µM (inactive) with MDA-N. Also, the GI50 was 85.5 µM (inactive) in the assay on NCI-H226; 33.4 µM (inactive) in the assay with NCI-H460; 27.4 µM (inactive) in the assay on PC-3; 10.9 µM (inactive) with RXF 393; 64.9 µM (inactive) in the assay with SK-MEL-28; > 100 µM (inactive) with SNB-75. Also, in the assay on T47D, the GI50 was 35.3 µM (inactive).
In the case of `CC(=O)OCc1ccc(-c2nc(C#N)c(N)o2)o1`, the GI50 with A549 was > 10 µM (inactive); in the assay with BT-549, > 10 µM (inactive); with EKVX it was > 10 µM (inactive); in the assay with HCT-15 it was over 10 µM; in the assay on Hs-578T, > 10 µM (inactive); with MDA-MB-435, > 10 µM (inactive). Moreover, the GI50 with MDA-N, in the assay with NCI-H226, in the assay on NCI-H460, with PC-3, with RXF 393 and in the assay with SF-268 was > 10 µM (inactive) throughout. The GI50 in the assay with SF-539, with SK-MEL-28, with SNB-75 and in the assay with T47D was > 10 µM (inactive) throughout.
Regarding `N#Cc1nnn(-c2ccc(Br)cc2)c1O`, the GI50 in the assay on A498 is > 100 µM (inactive); in the assay on A549, > 100 µM (inactive); in the assay on BT-549, > 100 µM (inactive); in the assay on EKVX, > 100 µM (inactive); in the assay with HCT-15, over 100 µM; with Hs-578T, > 100 µM (inactive). For the same compound, the GI50 in the assay on MDA-MB-435 is > 100 µM (inactive); in the assay with MDA-N, 46.9 µM (inactive); with NCI-H226 it was > 100 µM (inactive); in the assay with PC-3, > 100 µM (inactive); in the assay with RXF 393, > 100 µM (inactive); with SF-268 it was > 100 µM (inactive). Further, the GI50 in the assay with SF-539, in the assay on SK-MEL-28, in the assay with SNB-75 and in the assay with T47D was > 100 µM (inactive) each time.
Turning to `CC(C)=CCc1c(O)c(CC2=C(O)C(CC=C(C)C)(C(=O)C(C)C)C(O)=C(C)C2=O)c(O)c(C(=O)C(C)C)c1O` (stereo not drawn), the GI50 was 9.57 µM (inactive) in the assay on A498; 14.1 µM (inactive) with A549; 11.6 µM (inactive) in the assay on BT-549; 17.7 µM (inactive) in the assay with EKVX; 11.7 µM with HCT-15; 9.89 µM (inactive) in the assay with Hs-578T. Further, the GI50 with MDA-MB-435 was 16.2 µM (inactive); with MDA-N, 14.3 µM (inactive); in the assay with NCI-H226 it was 7.93 µM (inactive); in the assay on PC-3, 5.66 µM (inactive); with RXF 393 it was 12.1 µM (inactive); in the assay with SF-268, 9.86 µM (inactive). In addition, the GI50 in the assay on SF-539 was 13.8 µM (inactive); with SK-MEL-28, 13.2 µM (inactive); with SNB-75, 13.6 µM (inactive); with T47D it was 8.45 µM (inactive).
With `O=C1C(N2CCNCC2)=C(Cl)C(=O)c2ncccc21`, the GI50 in the assay on A549 was > 10 µM (inactive); in the assay on BT-549 it was > 10 µM (inactive); in the assay with EKVX, > 10 µM (inactive); with HCT-15 it was over 10 µM; in the assay on Hs-578T, > 10 µM (inactive); with MDA-MB-435, 4.6 µM (inactive). The GI50 with MDA-N was 4.47 µM (inactive); with NCI-H226, > 10 µM (inactive); with NCI-H460, > 10 µM (inactive); with PC-3 it was > 10 µM (inactive); in the assay on RXF 393, > 10 µM (inactive); with SF-268 it was > 10 µM (inactive). In addition, the GI50 in the assay with SF-539, with SK-MEL-28, in the assay with SNB-75 and with T47D was > 10 µM (inactive) in each case.
Take `C[C@]12CC[C@H](O)CC1=CC[C@@H]1[C@@H]2CC[C@]2(C)C(=O)CC[C@@H]12` [PRASTERONE]: the GI50 with A549 was > 100 µM (inactive); in the assay with BT-549, > 100 µM (inactive); with EKVX, 75.2 µM (inactive); in the assay on HCT-15, over 100 µM; in the assay on Hs-578T, 45.6 µM (inactive); in the assay with MDA-MB-435 it was > 100 µM (inactive). The GI50 in the assay on MDA-N, in the assay with NCI-H226, in the assay on PC-3, in the assay on RXF 393, with SF-268 and with SF-539 was > 100 µM (inactive) each time. In addition, the GI50 in the assay with SK-MEL-28, with SNB-75 and in the assay with T47D was > 100 µM (inactive) throughout.
Take `COc1cc(C2C3=C(N=C4SC(C(C)=O)=C(C)N42)c2ccccc2CC3)cc(OC)c1OC` (stereo not drawn): the GI50 was > 100 µM (inactive) with A498; > 100 µM (inactive) in the assay with A549; > 100 µM (inactive) in the assay with BT-549; 85.5 µM (inactive) in the assay with EKVX; 50.4 µM (inactive) with Hs-578T; 57 µM (inactive) in the assay with MDA-MB-435. In addition, the GI50 in the assay with MDA-N was 28.7 µM (inactive); in the assay with NCI-H226, > 100 µM (inactive); in the assay on PC-3, > 100 µM (inactive); in the assay with RXF 393, 46.8 µM (inactive); in the assay on SF-268, > 100 µM (inactive); in the assay on SF-539, > 100 µM (inactive). Further, the GI50 in the assay on SK-MEL-28 was > 100 µM (inactive); with SNB-75, 53.7 µM (inactive); in the assay on T47D it was 11.4 µM (inactive).
With `Oc1ccc(C(=C(Br)c2ccccc2)c2ccc(O)cc2)cc1`, the GI50 is 18.3 µM (inactive) with A498; 4.4 µM (inactive) in the assay with A549; 4.44 µM (inactive) with BT-549; 11.5 µM (inactive) with EKVX; 3.72 µM with HCT-15; 4.83 µM (inactive) in the assay on Hs-578T. The GI50 in the assay with MDA-MB-435 was 1.52 µM (inactive); in the assay on MDA-N it was 1.83 µM (inactive); in the assay on NCI-H226 it was 15.8 µM (inactive); in the assay with NCI-H460 it was 11.1 µM (inactive); in the assay on PC-3, 7.16 µM (inactive); in the assay on RXF 393, 12.1 µM (inactive). The GI50 is 4.9 µM (inactive) in the assay with SF-268, 6.18 µM (inactive) in the assay on SF-539, 10.4 µM (inactive) in the assay on SK-MEL-28 and 10.7 µM (inactive) with T47D.
As for `C=CC1=C(C)c2cc3[nH]c(c4c5nc(cc6[nH]c(cc1n2)c(C)c6CC)C=C5C(=O)C4C(=O)OC)C(CCC(=O)OC/C=C(\C)CCCC(C)CCCC(C)CCCC(C)C)C3C.C=CC1=C(C)c2cc3[nH]c(c4c5nc(cc6[nH]c(cc1n2)c(C=O)c6CC)C=C5C(=O)C4C(=O)OC)C(CCC(=O)OC/C=C(\C)CCCC(C)CCCC(C)CCCC(C)C)C3C` (stereo not drawn), the GI50 in the assay on A498 is > 100 µM (inactive); with A549, > 100 µM (inactive); with BT-549, 76.4 µM (inactive); in the assay on EKVX, 50.6 µM (inactive); with HCT-15, over 100 µM; in the assay with Hs-578T it was > 100 µM (inactive). In addition, the GI50 in the assay with MDA-MB-435, in the assay on MDA-N, in the assay on NCI-H226, in the assay with NCI-H460, in the assay with PC-3 and with SF-268 was > 100 µM (inactive) throughout. The GI50 in the assay on SF-539, with SK-MEL-28, in the assay with SNB-75 and in the assay on T47D was > 100 µM (inactive) each time.
Take `CC(=O)[C@H]1CC[C@@H]2[C@]1(C)CC=C1[C@]23C=C[C@]2(C[C@@H](O)CC[C@]12C)C(C(=O)O)C3C(=O)O` (stereo partly drawn): the GI50 is > 100 µM (inactive) with A498; > 100 µM (inactive) in the assay with A549; > 100 µM (inactive) with BT-549; > 100 µM (inactive) with EKVX; over 100 µM in the assay with HCT-15; > 100 µM (inactive) with Hs-578T. The GI50 with MDA-MB-435, in the assay on MDA-N, in the assay on NCI-H226, with NCI-H460, in the assay with PC-3 and in the assay on SF-268 was > 100 µM (inactive) each time. Besides, the GI50 with SF-539, with SK-MEL-28, in the assay with SNB-75 and with T47D was > 100 µM (inactive) each time.
